These molecules were tested against T1, RORc ligand binding domain (Homo sapiens, UniProt P51449) (assay: In vitro RORc ligand binding assay (25-[3H]hydroxycholesterol displacement, filter binding)). Settings: 6 nM 25-[3H]hydroxycholesterol, 0.6 ug/mL RORc receptor, 3 h at 25° C.
T1 construct: host or cells: E. coli
T1 sequence (P51449 269-508 limits assumed): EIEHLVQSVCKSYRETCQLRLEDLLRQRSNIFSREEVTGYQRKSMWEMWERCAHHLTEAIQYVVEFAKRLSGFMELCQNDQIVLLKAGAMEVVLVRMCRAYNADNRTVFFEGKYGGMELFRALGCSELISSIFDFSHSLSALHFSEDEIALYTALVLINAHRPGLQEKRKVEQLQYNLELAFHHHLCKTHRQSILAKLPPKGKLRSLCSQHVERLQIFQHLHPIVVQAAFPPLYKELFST
Procedure, shortened: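 Compounds in 5% DMSO, either dose-response or screened at 1 and 10 uM, competed with 6 nM 25-[3H]hydroxycholesterol for 0.6 ug/mL RORc over 3 h at 25° C (HEPES pH 7.4, NaCl, MgCl2, DTT, BSA buffer). Bound tracer was filter-harvested and counted; nonspecific binding came from 1 uM 25-hydroxycholesterol.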

IC50 [µM]	SMILES
0.044	CC1(C)[C@@H]2CC[C@@]1(C(=O)N1CCC1)c1nnc(-c3c(F)cccc3F)cc12 [Example 49, azetidin-1-yl[(5S,8S)-3-(2,6-difluorophenyl)-9,9-dimethyl-6,7-dihydro-5,8-methanocinnolin-8(5H)-yl]methanone]
1.44	CC1(C)[C@H]2CC[C@]1(NC(=O)CO)c1nnc(-c3ccccc3F)cc12 [Example 88, N-[(5R,8R)-3-(2-fluorophenyl)-9,9-dimethyl-6,7-dihydro-5,8-methanocinnolin-8(5H)-yl]-2-hydroxyacetamide]
5.48	Cn1cc(-c2cc3c(nn2)[C@@]2(C)CC[C@@H]3C2(C)C)cn1 [Example 96, (5R,8S)-8,9,9-trimethyl-3-(1-methyl-1H-pyrazol-4-yl)-5,6,7,8-tetrahydro-5,8-methanocinnoline]
2.07	CCNC(=O)N(C)[C@@]12CC[C@@H](c3cc(-c4c(F)cccc4F)nnc31)C2(C)C [Example 285, 1-((5R,8R)-3-(2,6-difluorophenyl)-9,9-dimethyl-5,6,7,8-tetrahydro-5,8-methanocinnolin-8-yl)-3-ethyl-1-methylurea]
0.22	CC1(C)[C@@H]2CC[C@@]1(C(=O)N1CC3CC1C3)c1nnc(-c3c(F)cccc3F)cc12 [Example 214, 2-azabicyclo[2.1.1]hexan-2-yl((5S,8S)-3-(2,6-difluorophenyl)-9,9-dimethyl-5,6,7,8-tetrahydro-5,8-methanocinnolin-8-yl)methanone]
0.222	CC1(C)[C@H]2CC[C@]1(CN1CCOC1=O)c1nnc(-c3c(F)cccc3F)cc12 [Example 279, 3-(((5R,8S)-3-(2,6-difluorophenyl)-9,9-dimethyl-5,6,7,8-tetrahydro-5,8-methanocinnolin-8-yl)methyl)oxazolidin-2-one]
0.033	CCN(C[C@@]12CC[C@@H](c3cc(-c4c(F)cccc4F)nnc31)C2(C)C)C(=O)CS(C)(=O)=O [Example 318, N-(((5R,8S)-3-(2,6-difluorophenyl)-9,9-dimethyl-5,6,7,8-tetrahydro-5,8-methanocinnolin-8-yl)methyl)-N-ethyl-2-(methylsulfonyl)acetamide]
0.261	COc1nnc([C@@]23CC[C@@H](c4cc(-c5c(F)cccc5F)nnc42)C3(C)C)o1 [Example 105, (5R,8R)-3-(2,6-difluorophenyl)-8-(5-methoxy-1,3,4-oxadiazol-2-yl)-9,9-dimethyl-5,6,7,8-tetrahydro-5,8-methanocinnoline]
2.72	CC(=O)N[C@H]1CCN(C(=O)[C@]23CC[C@H](c4cc(-c5c(F)cccc5F)nnc42)C3(C)C)C1 [Example 225, N-((S)-1-((5S,8S)-3-(2,6-difluorophenyl)-9,9-dimethyl-5,6,7,8-tetrahydro-5,8-methanocinnoline-8-carbonyl)pyrrolidin-3-yl)acetamide]
0.139	CNC(=O)[C@]12CC[C@H](c3cc(-c4c(F)cccc4F)nnc31)C2(C)C [Example 53, (5S,8S)-3-(2,6-difluorophenyl)-N,9,9-trimethyl-6,7-dihydro-5,8-methanocinnoline-8(5H)-carboxamide]
0.393	CN(C(=O)CO)[C@@]12CC[C@@H](c3cc(-c4c(F)cccc4F)nnc31)C2(C)C [Example 313, N-((5R,8R)-3-(2,6-difluorophenyl)-9,9-dimethyl-5,6,7,8-tetrahydro-5,8-methanocinnolin-8-yl)-2-hydroxy-N-methylacetamide]
1.46	CC1(C)[C@H]2CC[C@]1(C(N)=O)c1nnc(-c3c(F)cccc3F)cc12 [Example 77, (5R,8R)-3-(2,6-difluorophenyl)-9,9-dimethyl-6,7-dihydro-5,8-methanocinnoline-8(5H)-carboxamide]
0.071	CC1(C)[C@H]2CC[C@]1(NCC(F)F)c1nnc(-c3c(F)cccc3F)cc12 [Example 307, (5R,8R)-N-(2,2-difluoroethyl)-3-(2,6-difluorophenyl)-9,9-dimethyl-5,6,7,8-tetrahydro-5,8-methanocinnolin-8-amine]
